Experimental data published in ChEMBL document CHEMBL3875144, “Novel fluorinated pyrrolomycins as potent anti-staphylococcal biofilm agents: Design, synthesis, pharmacokinetics and antibacterial activities” (Eur J Med Chem, 2016).
≈ marks a conversion by molar mass, not a printed value. Calls of active or inactive are those of the source. The calls are words filed in the database; no cut-off is given here.

Key:
[1] = Antibacterial activity against methicillin-resistant Staphylococcus aureus USA300 JE2 incubated for 20 to 24 hrs by broth microdilution assay; assay type: functional, Staphylococcus aureus subsp. aureus USA300
[2] = Selectivity index, ratio of IC50 for cytotoxicity against human HeLa cells to MIC for antibacterial activity against methicillin-resistant Staphylococcus aureus USA300 JE2; assay type: toxicity, cell-based; settings: read-out: Selectivity Index
[3] = Cytotoxicity against human HeLa cells assessed as decrease in cell viability measured after 24 hrs by MTS assay; assay type: toxicity, cell-based
[4] = Plasma concentration in Balc/c mouse at 10 mg/kg administered via oral gavage up to 72 hrs by LC-MS/MS method; assay type: ADME, organism-based
[5] = tested on: Staphylococcus aureus subsp. aureus USA300; assay: Antibiofilm activity against methicillin-resistant Staphylococcus aureus USA300 JE2 assessed as disruption of preformed biofilms at 8 ug/ml within 5 days; assay type: functional
[6] = Tmax in Balc/c mouse at 10 mg/kg administered via oral gavage by LC-MS/MS method; assay type: ADME, organism-based; settings: in vivo
[7] = tested on: Staphylococcus aureus subsp. aureus USA300; assay: Antibiofilm activity against methicillin-resistant Staphylococcus aureus USA300 JE2 at 8 ug/ml measured at 24 hrs post dose relative to control; assay type: functional
[8] = Plasma concentration in Balc/c mouse at 1 mg/kg, iv up to 72 hrs by LC-MS/MS method; assay type: ADME, organism-based
[9] = tested on: Staphylococcus aureus subsp. aureus USA300; assay: Antibiofilm activity against methicillin-resistant Staphylococcus aureus USA300 JE2 at 8 ug/ml measured at 48 hrs post dose relative to control; assay type: functional
[10] = Bactericidal activity against methicillin-resistant Staphylococcus aureus USA300 JE2 incubated up to 24 hrs; assay type: functional, Staphylococcus aureus subsp. aureus USA300; settings: JE2, 24 h
[11] = tested on: Staphylococcus aureus subsp. aureus USA300; assay: Bactericidal activity against methicillin-resistant Staphylococcus aureus USA300 JE2 at 8 ug/ml incubated up to 24 hrs relative to control; assay type: functional
[12] = tested on: Staphylococcus aureus subsp. aureus USA300; assay: Antibiofilm activity against methicillin-resistant Staphylococcus aureus USA300 JE2 at 32 ug/ml measured at 24 hrs post dose relative to control; assay type: functional
[13] = tested on: Staphylococcus aureus subsp. aureus USA300; assay: Antibiofilm activity against methicillin-resistant Staphylococcus aureus USA300 JE2 at 32 ug/ml measured at 48 hrs post dose relative to control; assay type: functional

Compound | MIC [1] [µg/mL] | selectivity ratio [2] | IC50 at 24 h [3] [µM] | other results
COc1c(F)cc(F)cc1C(=O)c1[nH]c(Br)c(Br)c1Br | 3 (≈ 6.33 µM) |  |  | 
O=C(c1ccccc1O)c1[nH]c(Cl)c(Cl)c1-n1c(C(=O)c2ccc(Cl)cc2O)cc(Cl)c1Cl | 0.078 (≈ 0.143 µM) | > 524 | > 40.9 | 
O=C(c1cc(F)cc(F)c1O)c1[nH]c(Br)c(Br)c1Br | 0.17 (≈ 0.37 µM) | > 275 | > 46 | 
COc1c(F)cc(F)cc1C(=O)c1c(Br)c(Br)c(Br)n1C | > 4 |  |  | 
O=C(c1cc(Cl)cc(Cl)c1O)c1[nH]c(F)c(Br)c1Br | 0.19 (≈ 0.44 µM) | > 229 | > 43.2 | 
O=C(c1cc(Br)c(F)[nH]1)c1cc(Cl)cc(Cl)c1O | 0.073 (≈ 0.207 µM) | > 484 | > 35.3 | concentration at 72 h [4]: ≥ 0.8 ng/mL; Activity [5]: Active; Tmax [6]: 15 min; Activity [7]: 84%; concentration at 72 h [8]: ≥ 0.8 ng/mL; Activity [9]: 97%; MBC [10]: 4 µg/mL (≈ 11.3 µM)
O=C(c1ccc[nH]1)c1cc(Cl)cc(Cl)c1O | > 4 |  |  | 
O=C(c1cc(Br)c(Br)[nH]1)c1cc(Cl)cc(Cl)c1O | 0.073 (≈ 0.176 µM) | > 567 | > 41.4 | Activity [11]: 92.5%; MBC [10]: 8 µg/mL (≈ 19.3 µM)
O=C(c1ccc[nH]1)c1cc(F)cc(F)c1O | > 4 |  |  | 
O=C(c1ccccc1O)c1[nH]c(Cl)c(Cl)c1-n1c(C(=O)c2cc(F)ccc2O)cc(Cl)c1Cl | 0.19 (≈ 0.36 µM) | > 280 | > 52.8 | 
Cn1c(Br)c(Br)c(Br)c1C(=O)c1cc(F)cc(F)c1O | > 4 |  |  | 
COc1c(F)cc(F)cc1C(=O)c1ccc[nH]1 | > 4 |  |  | 
O=C(c1cc(Br)c[nH]1)c1cc(Cl)cc(Cl)c1O | > 4 |  |  | 
CN[C@H](CC(C)C)C(=O)N[C@H]1C(=O)N[C@@H](CC(N)=O)C(=O)N[C@H]2C(=O)N[C@H]3C(=O)N[C@H](C(=O)N[C@H](C(=O)O)c4cc(O)cc(O)c4-c4cc3ccc4O)[C@H](O)c3ccc(c(Cl)c3)Oc3cc2cc(c3O[C@@H]2O[C@H](CO)[C@@H](O)[C@H](O)[C@H]2O[C@H]2C[C@](C)(N)[C@H](O)[C@H](C)O2)Oc2ccc(cc2Cl)[C@H]1O [VANCOMYCIN] | 2 (≈ 1.38 µM) |  |  | Activity [12]: 11%; MBC [10]: 8 µg/mL (≈ 5.52 µM); Activity [13]: 39%
